The source of these data is patent publication US20220054617A1, “SUBUNIT VACCINE CONSTRUCTS FOR FLAVIVIRUSES” (priority 2018, published 2022).

One assay deals with albumin. The note with it: human, non-human primate, pig, rabbit, rat, mouse; cited from earlier work.
The next assay deals with TLR-8 (Homo sapiens, UniProt Q9NR97). The conditions noted are these: in vitro.
For assay [1], the system named is human whole blood or PBMCs.
Another assay has as its target TLR-7 (Homo sapiens, UniProt Q9NYK1). The note with it: in vitro.

Sequence of TLR-8 (Q9NR97 27-1041): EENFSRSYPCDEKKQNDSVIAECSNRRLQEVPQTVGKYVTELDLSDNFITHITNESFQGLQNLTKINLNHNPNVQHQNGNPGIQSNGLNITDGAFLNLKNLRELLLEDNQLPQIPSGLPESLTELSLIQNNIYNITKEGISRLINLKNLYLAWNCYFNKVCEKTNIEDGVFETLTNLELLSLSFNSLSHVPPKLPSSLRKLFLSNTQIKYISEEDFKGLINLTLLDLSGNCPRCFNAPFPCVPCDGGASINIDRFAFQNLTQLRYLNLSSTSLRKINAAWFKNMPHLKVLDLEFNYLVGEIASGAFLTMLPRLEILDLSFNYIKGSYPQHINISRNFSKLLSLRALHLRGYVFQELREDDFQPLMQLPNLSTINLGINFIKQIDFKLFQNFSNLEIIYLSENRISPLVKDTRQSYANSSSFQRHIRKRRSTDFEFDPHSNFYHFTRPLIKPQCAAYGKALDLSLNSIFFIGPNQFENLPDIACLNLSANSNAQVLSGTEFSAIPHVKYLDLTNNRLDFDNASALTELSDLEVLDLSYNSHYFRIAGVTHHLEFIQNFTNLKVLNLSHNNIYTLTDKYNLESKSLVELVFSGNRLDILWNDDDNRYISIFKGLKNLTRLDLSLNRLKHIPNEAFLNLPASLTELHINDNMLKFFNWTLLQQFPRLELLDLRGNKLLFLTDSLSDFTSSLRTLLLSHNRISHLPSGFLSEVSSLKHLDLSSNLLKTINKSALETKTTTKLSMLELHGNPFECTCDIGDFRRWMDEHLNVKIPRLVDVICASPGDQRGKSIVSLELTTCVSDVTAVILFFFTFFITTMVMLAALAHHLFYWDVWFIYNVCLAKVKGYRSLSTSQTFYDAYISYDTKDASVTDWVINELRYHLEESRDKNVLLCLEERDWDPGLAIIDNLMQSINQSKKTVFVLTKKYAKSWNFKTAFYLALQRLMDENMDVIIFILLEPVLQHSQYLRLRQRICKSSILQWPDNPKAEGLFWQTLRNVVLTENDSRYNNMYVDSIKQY
Sequence of TLR-7 (Q9NYK1 27-1049, species assumed): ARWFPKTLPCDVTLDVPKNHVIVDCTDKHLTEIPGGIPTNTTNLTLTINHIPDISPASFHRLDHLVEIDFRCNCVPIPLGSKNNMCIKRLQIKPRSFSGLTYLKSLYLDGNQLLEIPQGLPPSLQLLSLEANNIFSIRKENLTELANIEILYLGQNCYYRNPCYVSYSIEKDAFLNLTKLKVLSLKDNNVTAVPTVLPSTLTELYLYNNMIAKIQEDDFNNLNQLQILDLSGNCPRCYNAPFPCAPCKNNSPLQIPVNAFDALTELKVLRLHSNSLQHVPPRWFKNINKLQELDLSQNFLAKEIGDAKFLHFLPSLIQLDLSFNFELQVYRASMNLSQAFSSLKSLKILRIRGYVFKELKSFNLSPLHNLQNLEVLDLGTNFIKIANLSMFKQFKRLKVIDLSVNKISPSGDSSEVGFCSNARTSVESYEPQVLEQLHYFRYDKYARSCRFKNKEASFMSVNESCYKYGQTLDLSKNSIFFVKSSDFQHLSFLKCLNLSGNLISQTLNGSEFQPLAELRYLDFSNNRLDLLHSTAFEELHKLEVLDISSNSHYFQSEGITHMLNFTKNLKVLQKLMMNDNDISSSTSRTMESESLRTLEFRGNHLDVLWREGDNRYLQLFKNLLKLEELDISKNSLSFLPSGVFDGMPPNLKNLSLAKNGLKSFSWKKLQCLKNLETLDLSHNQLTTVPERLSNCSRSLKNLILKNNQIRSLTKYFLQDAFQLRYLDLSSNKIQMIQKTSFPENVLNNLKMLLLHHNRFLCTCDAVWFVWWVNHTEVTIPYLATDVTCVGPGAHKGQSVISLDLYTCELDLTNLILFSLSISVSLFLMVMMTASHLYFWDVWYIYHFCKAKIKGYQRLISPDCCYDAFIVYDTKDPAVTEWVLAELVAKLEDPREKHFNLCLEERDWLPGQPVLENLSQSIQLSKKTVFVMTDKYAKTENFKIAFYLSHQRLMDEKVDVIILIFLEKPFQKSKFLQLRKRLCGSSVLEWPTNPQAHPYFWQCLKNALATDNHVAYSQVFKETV

For the substance “SGP portion: portion of the Streptococcal G protein used as N-terminal tag, SEQ ID NO: 14 (LAEAKVLANRELDKYGVSDYYKNLINNAKTVEGVKALIDEILAALPK)”, the binding to albumin entry in the assay with albumin is “good binding”.
Consider “covalent conjugate of an imidazoquinoline TLR7/TLR8 dual agonist [5-(3-(aminomethyl)benzyl)-3-pentylquinolin-2-amine] with hyaluronic acid [EY-4-143]”, for which, in the assay on ZIKV (in vivo), the adjuvant effect result is listed as “potent adjuvant”. Further, in the assay on ZIKV (with the ZIKV antigen, several candidate adjuvants examined, preliminary screens), the “elicitation of neutralizing antibodies after the first boost” value was “consistently elicit neutralizing antibodies after the first boost”. Moreover, the “activity in TLR-8 primary assay” value on TLR-8 is “inactive”. Also, in assay [1], the cytokine induction entry is “silent”. Besides, the “activity in TLR-7 primary assay” value on TLR-7 is “inactive”.
